Patent publication US11149052B2, “2′3′-cyclic dinucleotides” (Institute of Organic Chemistry and Biochemistry, ASCR, V.V.I, priority 2018, dated 2021)
Read-outs that look alike come from different tables or passages of the source.

Assays:
[1] = target: human wild type STING (WT STING) (Homo sapiens, UniProt Q86WV6, H232R); experiment: Digitonin assay using 293T wtSTING-FL reporter cells (ISRE firefly luciferase reporter); format: cell-based; conditions: 293T wtSTING-FL cells; 30 min in Digitonin buffer, then 5 hours; luciferase read-out; 8-point dose-response curve; read-out: Digitonin assay EC50 (μmol · l^−1) WT STING
Chain of human wild type STING (WT STING) (Q86WV6 whole entry H232R): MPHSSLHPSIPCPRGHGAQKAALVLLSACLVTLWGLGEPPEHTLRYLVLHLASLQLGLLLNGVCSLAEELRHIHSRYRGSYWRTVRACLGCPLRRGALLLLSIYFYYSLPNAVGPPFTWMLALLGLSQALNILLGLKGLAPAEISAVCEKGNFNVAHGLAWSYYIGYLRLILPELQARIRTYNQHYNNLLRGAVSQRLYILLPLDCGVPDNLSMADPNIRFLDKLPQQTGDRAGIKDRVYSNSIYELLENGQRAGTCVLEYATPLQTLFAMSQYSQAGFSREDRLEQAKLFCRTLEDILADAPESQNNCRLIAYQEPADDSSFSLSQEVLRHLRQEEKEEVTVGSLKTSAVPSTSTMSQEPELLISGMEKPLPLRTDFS
From the text: Two complementary oligonucleotides of the sequence […] […] […] […] […] The oligonucleotides were mixed in equal molar amounts, hybridized, and cleaved by restriction endonucleases HindIII (cat. #. R0104S, NEB, Ipswich, USA) and BglII (cat. #R0144S, NEB, Ipswich, USA). Ultimately, they were ligated into plasmid pGL4.27 (cat. #E6651, Promega, Madison, USA) linearized with the same enzymes. As result the sequence with four ISRE sites was placed upstream of the minimum promoter of firefly luciferase reporter gene.
After 5 minutes incubation at room temperature (RT), 250 μL of the mixture was added dropwise to the cells in one well.
Transfected cells were seeded onto poly-D-lysine coated six well plates at density 50,000 cells per 1 cm^2 in DMEM medium with high glucose containing 10% heat inactivated FBS, 30 μg/mL blasticidin (cat. #ant-bl-05, InvivoGen, San Diego, USA), 0.06 mg/ml Penicillin G and 0.1 mg/ml Streptomycin Sulfate (both cat. #. L0018, Biowest, Riverside, USA). The medium was replenished every 3-4 days until visible colonies of cells resistant to blasticidin were formed.
Blasticidin resistant cells stably expressing WT STING were further transfected with […] plasmid following the same procedure as described above. […] Homogeneous culture of stably double transfected cells was prepared by limiting dilution of cells in 96 well plates and wells with cells were selected that originated from a single cell.
The medium was removed next day and three fold serial dilutions of compounds in Digitonin buffer containing 50 mmol·l^−1 HEPES (cat. #H3375, Sigma Aldrich, Czech Republic) pH 7.0, 100 mmol·l^−1 KCl, 3 mmol·l^−1 MgCl2, 0.1 mmol·l^−1 DTT (cat. #D0632, Sigma Aldrich, Czech Republic), 85 mmol·l^−1 Sucrose (cat. #S7903, Sigma Aldrich, Czech Republic), 0.2% BSA (cat. #A2153, Sigma Aldrich, Czech Republic), 1 mmol·l^−1 ATP (cat. #A1852, Sigma Aldrich, Czech Republic), 0.1 mmol·l^−1 GTP (cat. #G8877, Sigma Aldrich, Czech Republic), and 10 μg/mL Digitonin A (cat. #D141, Sigma Aldrich, Czech Republic) were added to the cells. The buffer was removed after 30 minutes incubation at 37° C. with 5% CO2, the cells were washed once with 100 μl of cultivation medium, and 100 IA of medium was added to each well. The plates with cells were incubated for 5 hours at 37° C. with 5% CO2, 50 μl of the medium was removed and 30 μl of ONE-Glo™ Luciferase Assay System reagent (cat. #E6120, Promega, Madison, USA) was added to each well. Luminesce was read on Synergy H1 (Biotek, Winooski, USA).

[2] = target: T1, WT STING (truncated human WT STING protein) (Homo sapiens, UniProt Q86WV6, H232R); experiment: Differential Scanning Fluorimetry with WT STING; format: binding; conditions: for ΔTm at 150 µM: read-out: DSF ΔTm (° C.) WT STING
T1 construct: truncated human WT STING or AQ STING (amino acid residues 140-343); 8xHis (N, cleaved yes); SUMO (N, cleaved yes); made in house; host or cells: E. coli Rosetta-gami B (DE3)
T1 sequence (Q86WV6 140-343 H232R): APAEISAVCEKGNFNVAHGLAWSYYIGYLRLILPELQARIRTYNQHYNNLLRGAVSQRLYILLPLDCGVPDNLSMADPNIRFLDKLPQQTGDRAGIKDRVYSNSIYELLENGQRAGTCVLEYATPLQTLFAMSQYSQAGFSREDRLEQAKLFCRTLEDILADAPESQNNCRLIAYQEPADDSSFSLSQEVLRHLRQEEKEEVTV
Protocol: (§1) Purified PCR products were cleaved with restriction enzymes BamHI (cat. #R0136S, NEB, Ipswich, USA) and NotI (cat. #R0189S, NEB, Ipswich, USA) and cloned into the pSUMO vector linearized with the identical enzymes.
(§2) DNase I (cat. #D5025, Sigma Aldrich, Czech Republic) and RNase A (cat. #R6513, Sigma Aldrich, Czech Republic) were added (final concentration […]) together with MgCl2 (final concentration 5 mmol·l^−1) to the homogenate and bacteria were lysed using French Press G-M™ High-Pressure Cell Press Homogenizer (1500 psi, 3 cycles). […] The resin was poured into a chromatography column, washed with 50 ml buffer A (50 mmol·l^−1 TrisCl (pH 8.0), 800 mmol·l^−1 NaCl, 3 mmol·l^−1β-mercaptoethanol; 10% glycerol; 20 mmol·l^−1 imidazole) and 8-His-SUMO tagged STING proteins were eluted with 15 ml buffer A containing 300 mmol·l^−1 imidazole. […] Proteins were concentrated with Amicon® Ultra-15 10 K device (cat. #UFC901008, Merck Millipore, Billerica, USA) and flash frozen in liquid N2.
(§3) Differential Scanning Fluorimetry with WT STING and AQ STING
(§4) 20 μL solutions of the reaction mixtures were pipetted in triplicates into 96 well optical reaction plates and thermal denaturation of samples were performed on real time PCR cycler (LightCycler® 480 Instrument II—Roche, Base^1, Switzerland). The first derivative of the thermal denaturation curves was performed to calculate denaturing temperatures of STING-CDN complexes and STING apoproteins. The thermal shift for each CDN was calculated by subtracting the average denaturing temperature of STING apoprotein from the average denaturing temperature of STING CDN complex.

[3] = target: T2, AQ STING (truncated human STING G230A-R293Q allelic form) (Homo sapiens, UniProt Q86WV6, G230A/H232R/R293Q); experiment: Differential Scanning Fluorimetry with AQ STING; format: binding; conditions: for ΔTm at 150 µM: read-out: DSF ΔTm (° C.) AQ STING
T2 construct: truncated human WT STING or AQ STING (amino acid residues 140-343); 8xHis (N, cleaved yes); SUMO (N, cleaved yes); made in house; host or cells: E. coli Rosetta-gami B (DE3)
T2 sequence (Q86WV6 140-343 G230A/H232R/R293Q): as the sequence (Q86WV6 140-343 H232R) above, with G91A, R154Q counted along it
Protocol: as §1, §2, §3, §4

[4] = thermal shift vs apoprotein, 150 μM CDN, 0.1 mg/ml STING protein, SYPRO Orange

Row | SMILES | EC50 [1] [nM] | DSF ΔTm (° C.) WT STING [2, 4] [°C] | DSF ΔTm (° C.) AQ STING [3, 4] [°C] | ΔTm at 150 µM [2, 4] [°C] | ΔTm at 150 µM [3, 4] [°C] | ΔTm at 150 µM [2] [°C] | ΔTm at 150 µM [3] [°C]
1 | Nc1nc2c(ncn2[C@@H]2O[C@@H]3COP(=O)(O)O[C@@H]4[C@H](O)[C@@H](COP(=O)(O)O[C@@H]2[C@@H]3O)O[C@H]4n2cnc3c(N)ncnc32)c(=O)[nH]1 [2′2′-cGAMP, reference compound] | 30 | 11.5 | 19.4 | – | – | – | –
2 | Nc1ncnc2c1ncn2[C@@H]1O[C@@H]2COP(=O)(O)O[C@H]3[C@@H](O)[C@H](n4cnc5c(N)ncnc54)O[C@@H]3COP(=O)(O)O[C@H]2[C@H]1O [3′3′-c-di-AMP, reference compound] | 300 | 2.6 | 9.3 | – | – | – | –
3 | Nc1nc2c(ncn2[C@@H]2O[C@@H]3COP(=O)(O)O[C@H]4[C@@H](O)[C@H](n5cnc6c(=O)[nH]c(N)nc65)O[C@@H]4COP(=O)(O)O[C@H]3[C@H]2O)c(=O)[nH]1 [3′3′-c-di-GMP, reference compound] | 5800 | 2.6 | 7.7 | – | – | – | –
4 | Nc1nc2c(ncn2[C@@H]2O[C@@H]3COP(=O)(O)O[C@@H]4[C@H](O)[C@@H](COP(=O)(O)CO[C@H]3[C@H]2O)O[C@H]4n2cnc3c(N)ncnc32)c(=O)[nH]1 [Example 2, (1R,6R,8R,9R,10S,16R,18R,19R)-8-(2-amino-6-oxo-6,9-dihydro-1H-purin-9-yl)-18-(6-amino-9H-purin-9-yl)-3,9,13,19-tetrahydroxy-2,4,7,11,14,17-hexaoxa-3λ^5,13λ^5-diphosphatricyclo[14.2.1.0^6,^10]nonadecane-3,13-dione] | 1200 | – | – | 1.4 | 8.8 | – | –
5 | Nc1nc2c(ncn2[C@@H]2O[C@@H]3COP(=O)(O)O[C@H]4[C@@H](O)[C@H](n5cnc6c(N)ncnc65)O[C@@H]4COP(=O)(O)CO[C@@H]2[C@@H]3O)c(=O)[nH]1 [Example 3, (1R,6S,7R,8R,10R,16R,17R,19R)-17-(2-amino-6-oxo-6,9-dihydro-1H-purin-9-yl)-8-(6-amino-9H-purin-9-yl)-4,7,13,19-tetrahydroxy-3,5,9,12,15,18-hexaoxa-4λ^5,13λ^5-diphosphatricyclo[14.2.1.0^6,^10]nonadecane-4,13-dione] | 3000 | – | – | 0.8 | 7.2 | – | –
6 | Nc1nc2c(ncn2[C@@H]2O[C@@H]3COP(=O)(O)O[C@H]4[C@@H](F)[C@H](n5cnc6c(N)ncnc65)O[C@@H]4COP(=O)(O)CO[C@@H]2[C@@H]3O)c(=O)[nH]1 [Example 4, (1R,6R,7R,8R,10R,16R,17R,19R)-17-(2-amino-6-oxo-6,9-dihydro-1H-purin-9-yl)-8-(6-amino-9H-purin-9-yl)-7-fluoro-4,13,19-trihydroxy-3,5,9,12,15,18-hexaoxa-4λ^5,13λ^5-diphosphatricyclo[14.2.1.0^6,^10]nonadecane-4,13-dione] | 20 | – | – | 7.3 | 16 | – | –
7 | Nc1nc2c(ncn2[C@@H]2O[C@@H]3COP(=O)(O)CO[C@H]4[C@@H](O)[C@H](n5cnc6c(N)ncnc65)O[C@@H]4COP(=O)(O)O[C@@H]2[C@@H]3O)c(=O)[nH]1 [Example 5, (1R,6R,8R,9R,10S,16R,18R,19R)-18-(2-amino-6-oxo-6,9-dihydro-1H-purin-9-yl)-8-(6-amino-9H-purin-9-yl)-3,9,13,19-tetrahydroxy-2,4,7,11,14,17-hexaoxa-3λ^5,13λ^5-diphosphatricyclo[14.2.1.0^6,^10]nonadecane-3,13-dione] | 14 | – | – | 16.7 | 23.2 | – | –
8 | Nc1nc2c(ncn2[C@@H]2O[C@@H]3COP(=O)(O)CO[C@@H]4[C@H](O)[C@@H](COP(=O)(O)O[C@H]3[C@H]2O)O[C@H]4n2cnc3c(N)ncnc32)c(=O)[nH]1 [Example 6, (1R,6S,7R,8R,10R,16R,17R,19R)-8-(2-amino-6-oxo-6,9-dihydro-1H-purin-9-yl)-17-(6-amino-9H-purin-9-yl)-4,7,13,19-tetrahydroxy-3,5,9,12,15,18-hexaoxa-4λ^5,13λ^5-diphosphatricyclo[14.2.1.0^6,^10]nonadecane-4,13-dione] | > 50000 | – | – | 0.1 | 1.2 | – | –
9 | Nc1nc2c(ncn2[C@@H]2O[C@@H]3COP(=O)(O)CO[C@@H]4[C@H](O)[C@@H](COP(=O)(O)O[C@H]3[C@H]2F)O[C@H]4n2cnc3c(N)ncnc32)c(=O)[nH]1 [Example 7, (1R,6R,7R,8R,10R,16R,17R,19R)-8-(2-amino-6-oxo-6,9-dihydro-1H-purin-9-yl)-17-(6-amino-9H-purin-9-yl)-7-fluoro-4,13,19-trihydroxy-3,5,9,12,15,18-hexaoxa-4λ^5,13λ^5-diphosphatricyclo[14.2.1.0^6,^10]nonadecane-4,13-dione] | 6100 | – | – | 1.8 | 8.9 | – | –
10 | Nc1ncnc2c1ncn2[C@@H]1O[C@@H]2COP(=O)(O)O[C@@H]3[C@H](O)[C@@H](COP(=O)(O)CO[C@H]2[C@H]1O)O[C@H]3n1cnc2c(N)ncnc21 [Example 8, (1R,6R,8R,9R,10S,16R,18R,19R)-8,18-bis(6-amino-9H-purin-9-yl)-3,9,13,19-tetrahydroxy-2,4,7,11,14,17-hexaoxa-3λ^5,13λ^5-diphosphatricyclo[14.2.1.0^6,^10]nonadecane-3,13-dione] | 400 | – | – | 3 | 9.4 | – | –
11 | Nc1nc2c(ncn2[C@@H]2O[C@@H]3COP(=O)(O)CO[C@@H]4[C@H](O)[C@@H](COP(=O)(O)CO[C@H]3[C@H]2O)O[C@H]4n2cnc3c(=O)[nH]c(N)nc32)c(=O)[nH]1 [Example 9, (1R,7R,9R,10R,11S,17R,19R,20R)-9,19-bis(2-amino-6-oxo-6,9-dihydro-1H-purin-9-yl)-4,10,14,20-tetrahydroxy-2,5,8,12,15,18-hexaoxa-4λ^5,14λ^5-diphosphatricyclo[15.2.1.0^7,^11]icosane-4,14-dione] | > 50000 | – | – | – | – | 0.3 | 1.1
